{"source": "patent US4010282A", "about": "“Anti-arrhythmic agents” (Knoll A.G. Chemische Fabriken, priority 1974, dated 1977)", "key": {"[1]": {"system": "left auricle of the guinea pig", "assay": "functional refractory period of the left auricle of the guinea pig using paired electrical stimulation (anti-arrhythmic effect)", "details": "for activation at 100 µM: 10^-^4 Mol/l; for Anti-arrhythmic Effect (Prolongation of the Refractory Period) ED25: dose which lengthens the refractory period by 25 percent, up to 30 minutes after addition to bath liquid; for activation at 10 µM: 10^-^5 Mol/l", "excerpt": "(§1) Jovier, J. Pharmakol. Exp. Therap. 148, 100-105 (1965). In this experimental arrangement, the numerous anti-arrhythmic agents, of different chemical structure and different therapeutic points of attack in man, heretofore used in therapy are all characterized by a lengthening of the functional refractory period. The method additionally permits determining the effects of the substance on the contractile force of the heart muscle [Reuter and Heeg, Naunyn-Schmiedeberg's Arch. Pharmak. 268, 323-333 (1971) and Zetler and Strubelt, Naunyn-Schmiedeberg's Arch. Pharmak. 271, 335-345 (1971)]. It is, thus, highly suitable for detecting substances having a large therapeutic breadth, i.e., with a large margin of safety between anti-arrhythmically- and negative inotropically-effective doses.\nThe testing of the substances employed up to 30 individual experiments in each case. For the determination of the effective dose, linear regression functions were calculated [cf. A. Lindner, Statistische Methoden, 3rd Edition, Birkhaeuser Verlag, Basel (1969)], in which the maximum percentage deviations from the starting value in a time period up to 30 minutes after addition of the test substance to the bath liquid was employed.\n(§2) In column I of following Table 1, one of the new compounds and known anti-arrhythmic agents are entered. Column II gives the anti-arrhythmic effect. Column III reports the inotropic effect. The therapeutic breadth of the compounds is given in column IV. The ED25 is the effective dose which lengthens the refractory period by 25 percent or lowers the contractile force by 25 percent."}, "[2]": {"system": "left auricle of the guinea pig", "assay": "inotropic effect: decrease in contractile force of the heart muscle", "details": "for Therapeutic Breadth (III/II): ratio ED25 inotropic / ED25 anti-arrhythmic", "excerpt": "as §1, with “148, 100-105 (1965).” left out, “268, 323-333 (1971) and Zetler and Strubelt, Naunyn-Schmiedeberg's Arch.” left out, “271, 335-345 (1971)].” left out\nThe testing of the substances employed up to 30 individual experiments in each case. For the determination of the effective dose, linear regression functions were calculated [cf.\nas §2"}, "[3]": {"system": "rats", "assay": "aconitine-induced disturbance of the heart rhythm in rats (electrocardiogram)", "format": "in vivo", "details": "for ED25 / ED50: Rattus norvegicus", "excerpt": "The anti-arrhythmic effect of the diamines could also be confirmed in intact research animals with an experimentally-induced disturbance of the heart rhythm. If rats are continuously infused intravenously with aconitine, severe disturbances in the heartbeat sequence, such as extrasystoles, ventricular tachycardia, and ventricular flutter, which eventually lead to the death of the experimental animal, can be detected in an electrocardiogram. By a pre-treatment with the new pharmaceutical agents, the appearance of these threatening disturbances of the heart rhythm can be hindered or, on continuous administration of aconitine, can be considerably delayed. This experimental model of arrhythmia has already been checked for its evidentiary value using clinically tested standard therapeutic agents and is highly suitable for an experimental animal characterization of anti-arrhythmic agents [cf. Bianchi et al., Arzneim. Forsch. 18, 845-850 (1968); Haas and Busch, Arzneim. Forsch. 18, 401-407 (1968); Haas et al., Arzneim. Forsch. 21, 1392-1399 (1971); Marmo, Naunyn-Schmiedeberg's Arch. Pharmak. 269, 231-247 (1971); and Strubelt et al., Naunyn-Schmiedeberg's Arch. Pharmak. 271, 346-360 (1971)].\nThe ED25 and ED50 are the intravenous or oral doses in mg/kg that permit a 25 percent or 50 percent increase in the dosage of aconitine administered, versus the aconitine control, until the occurrence of extrasystoles, ventricular tachycardia, and ventricular flutter."}, "[4]": {"details": "Cavia porcellus, read-out: Anti-arrhythmic Effect (% Prolongation of the Refractory Period)"}, "[5]": {"details": "iv, read-out: Ventr. Tachycardia ED25"}, "[6]": {"details": "iv, read-out: Ventr. Tachycardia ED50"}, "[7]": {"details": "dose which lowers the contractile force by 25 percent, up to 30 minutes after addition to bath liquid"}}, "note": "Like-named read-outs stand apart in the source and are kept apart here."}
{"smiles": "c1ccc(CNCCCNCc2ccccc2)cc1", "values": [{"measurement": "activation at 100 µM", "setting": "[1]; [4]", "result": 47, "unit": "%"}, {"measurement": "Anti-arrhythmic Effect (Prolongation of the Refractory Period) ED25", "setting": "[1]", "result": 0.054}, {"measurement": "Inotropic Effect (Decrease in Contractile Force) ED25", "setting": "[2]; guinea pig", "result": 0.141}, {"measurement": "Therapeutic Breadth (III/II)", "setting": "[2]", "result": 2.6}, {"measurement": "ED25", "setting": "[3]; iv, read-out: Extrasystoles ED25", "result": 5.2, "unit": "mg/kg"}, {"measurement": "ED50", "setting": "[3]; iv, read-out: Extrasystoles ED50", "result": 6, "unit": "mg/kg"}, {"measurement": "ED25", "setting": "[3]; iv, read-out: Ventr. Flutter ED25", "result": 4.9, "unit": "mg/kg"}, {"measurement": "ED50", "setting": "[3]; iv, read-out: Ventr. Flutter ED50", "result": 6.4, "unit": "mg/kg"}, {"measurement": "ED25", "setting": "[3]; [5]", "result": 5.3, "unit": "mg/kg"}, {"measurement": "ED50", "setting": "[3]; [6]", "result": 6.2, "unit": "mg/kg"}, {"measurement": "ED25", "setting": "[3]; po, read-out: Extrasystoles ED25", "result": 65.8, "unit": "mg/kg"}, {"measurement": "ED50", "setting": "[3]; po, read-out: Extrasystoles ED50", "result": 96.2, "unit": "mg/kg"}, {"measurement": "ED25", "setting": "[3]; po, read-out: Ventr. Flutter ED25", "result": 51.1, "unit": "mg/kg"}, {"measurement": "ED50", "setting": "[3]; po, read-out: Ventr. Flutter ED50", "result": 69.9, "unit": "mg/kg"}, {"measurement": "ED25", "setting": "[3]; po, read-out: Ventr. Tachycardia ED25", "result": 55.4, "unit": "mg/kg"}, {"measurement": "ED50", "setting": "[3]; po, read-out: Ventr. Tachycardia ED50", "result": 71.6, "unit": "mg/kg"}, {"measurement": "effect in aconitine arrhythmia", "setting": "[3]; Table 3, parenterally as well as orally", "result": "superior effect"}]}
{"smiles": "c1ccc(CN(CC2=NCCN2)c2ccccc2)cc1", "note": "[Antazoline, antazoline]", "values": [{"measurement": "Anti-arrhythmic Effect (Prolongation of the Refractory Period) ED25", "setting": "[1]", "result": 0.164}, {"measurement": "Inotropic Effect (Decrease in Contractile Force) ED25", "setting": "[2]; [7]", "result": 0.094}, {"measurement": "Therapeutic Breadth (III/II)", "setting": "[2]", "result": 0.6}]}
{"smiles": "Clc1cccc(CNCCCNCc2cccc(Cl)c2)c1", "note": "[N,N'-di-(3'-chlorobenzyl)-propylene-1,3-diamine]", "values": [{"measurement": "activation at 20 µM", "setting": "[1]; Cavia porcellus, 2 × 10^-^5 Mol/l, read-out: Anti-arrhythmic Effect (% Prolongation of the Refractory Period)", "result": 45, "unit": "%"}]}
{"smiles": "Clc1ccc(CNCCCNCc2ccc(Cl)cc2)cc1", "note": "[N,N'-di-(4'-chlorobenzyl)-1,3-diaminopropane]", "values": [{"measurement": "activation at 10 µM", "setting": "[1]; [4]", "result": 37, "unit": "%"}]}
{"smiles": "Clc1ccc(CNCCCNCc2ccc(Cl)c(Cl)c2)cc1Cl", "note": "[N,N'-di-(m,p-dichlorobenzyl)-propylenediamine]", "values": [{"measurement": "activation at 10 µM", "setting": "[1]; [4]", "result": 26, "unit": "%"}]}
{"smiles": "COc1ccc(CNCCCNCc2ccc(OC)c(OC)c2)cc1OC", "note": "[N,N'-di-(m,p-dimethoxybenzyl)propylenediamine]", "values": [{"measurement": "activation at 100 µM", "setting": "[1]; [4]", "result": 42, "unit": "%"}]}
{"smiles": "c1ccc(CNCCNCc2ccccc2)cc1", "note": "[N,N'-dibenzyl-ethylenediamine]", "values": [{"measurement": "activation at 100 µM", "setting": "[1]; [4]", "result": 39, "unit": "%"}]}
{"smiles": "CCC[N+]12C(O)C(CC)C3CC1C1N(C)c4ccccc4C14CC2C3C4O", "note": "(stereo not drawn) [N,n-propylajmaline, N-propylajmaline]", "values": [{"measurement": "Anti-arrhythmic Effect (Prolongation of the Refractory Period) ED25", "setting": "[1]", "result": 0.0037}, {"measurement": "Inotropic Effect (Decrease in Contractile Force) ED25", "setting": "[2]; [7]", "result": 0.0015}, {"measurement": "Therapeutic Breadth (III/II)", "setting": "[2]", "result": 0.4}]}
{"smiles": "C1CCN2C[C@@H]3C[C@@H](CN4CCCC[C@@H]34)[C@H]2C1", "note": "[SPARTEINE, reference compound]", "values": [{"measurement": "ED25", "setting": "[3]; [5]", "result": 4.4, "unit": "mg/kg"}, {"measurement": "ED50", "setting": "[3]; [6]", "result": 9.6, "unit": "mg/kg"}]}
